Data published in PMC4460047 (PLoS ONE, 2015).

Experiments:
[1] = Plasma levels after oral administration to Wistar rats; assay type: in vivo, rat; conditions: for AUC(0-t) / concentration at 15 min / concentration at 30 min / concentration at 60 min / concentration at 120 min / concentration at 240 min / concentration at 360 min / concentration at 480 min: male, rat, plasma, po, n = 9; for AUC(0-t): Wistar, administered compound, mean±SEM, read-out: AUC0- 480 (converted); for AUC(0-t) / Cmax of administered compound in rat plasma / Time of Cmax of administered compound in rat plasma: p.o.; for concentration at 15 min / concentration at 30 min / concentration at 60 min / concentration at 120 min / concentration at 240 min / concentration at 360 min / concentration at 480 min: p.o. 145 mg kg-1, Wistar rats, mean ± SEM; for concentration at 15 min: read-out: Prodrug Conc in plasma, 15 min; for concentration at 30 min: read-out: Prodrug Conc in plasma, 30 min; for concentration at 60 min: read-out: Prodrug Conc in plasma, 60 min; for concentration at 120 min: read-out: Prodrug Conc in plasma, 120 min; for concentration at 240 min: read-out: Prodrug Conc in plasma, 240 min; for concentration at 360 min: read-out: Prodrug Conc in plasma, 360 min; for concentration at 480 min: read-out: Prodrug Conc in plasma, 480 min; for Cmax of administered compound in rat plasma / Time of Cmax of administered compound in rat plasma: PEA 100 mg kg-1, 20, 28 145 mg kg-1
Method: Twenty-seven male Wistar rats (Charles River Laboratories, Italy), 150–250 g in weight, were used in the study. Number of animals was calculated by G-power a priori analysis (α = 0.05 and β = 0.05). Animals were housed in group in policarbonate cages (Tecniplast, Italy) in a conventional facility with controlled temperature 22±1°C, a relative humidity of 55±5%, and a 12 h light/dark cycle (6:00 am to 6:00 pm). The rats were provided standard pellet diet (4RF21 GLP Mucedola, Italy) and water ad libitum throughout the study. The experiments were started only after acclimatization of animals to the laboratory conditions. Before the experiments, rats were fasted for 18 h, with free access to drinking water. Animals were randomized in three experimental groups (nine animals for each group) receiving respectively L-Val-PEA (20), D-Val-PEA (28) and PEA (1).
The day of the experiments substances were turned into a corn oil suspension, after ultrasound and vortexing and they were administered to rats between 8.00 and 10.00 am by gastric gavage at the equimolar doses of 145 mg kg^-1 for L- and D-Val-PEA (20, 28) and 100 mg kg^-1 of PEA (1). Blood samples were collected via sub-tongue puncture from each anaesthetized rat (2% isofluran in air) to minimize any suffering. Blood samples of 0.2 mL were collected before treatment and at 15, 30, 60, 120, 240, 360 and 480 min post-dosing into EDTA-treated tubes (Sarstedt, Germany), immediately centrifuged (5000 rpm, 10 min, 4°C; refrigerated microcentrifuge Z 216 MK, Hermle LaborTechnik). Resulting plasma was immediately processed by protein precipitation with ice-cold acetonitrile containing the IS 75 nmol L^-1 (PEA-d4) and analyzed as previously described. AUC values were calculated employing the software add-ons of Microsoft Excel.

[2] = Stability in 20% w/v rat liver homogenate; assay type: in vitro ADME; conditions: for half-life at 50 nM: rat liver homogenate, read-out: Rat Liver Compd t 1/2
Method: (§1) The chemical and metabolic stability of PEA and all prodrugs were studied by incubating each compound (5 μL of a […] solution in DMSO, or DMSO as control) with 495 μL of 10 mM phosphate buffered saline pH 7.4 for chemical stability, 80% v/v rat plasma or 20% w/v rat liver homogenate prepared accordingly to previously described procedures for metabolic stability, reaching a final concentration of 50 nm for the test compound.
(§2) Rat plasma and liver samples were pre-incubated at 37°C for 10 min before adding the compounds. After incubation for different time periods (0, 15, 30, 60, 120, 240 and 360 min), samples were deproteinized by adding 100 μL of acetonitrile with 75 nmol L^-1 IS (PEA-d4). The samples were centrifuged (14 000 g, 10 min, 4°C), and the supernatants were analyzed by HPLC–ESI–MS/MS. For each tested compound, a multiple reaction monitoring (MRM) ESI–MS/MS method was set up in order to monitor the relative concentration of compound and released PEA at the different incubation times, compared to the time t = 0, in rat plasma and liver homogenate.

[3] = Stability and PEA release in 80% v/v rat plasma; assay type: in vitro ADME; conditions: for half-life at 50 nM: rat, pH 7.4, 80% v/v rat plasma, 50 nm compound, read-out: Rat Plasma Compd t 1/2
Method: as §1, §2
Cmax and tmax in rat plasma were read from the raw data as the coordinates of the highest concentration observed. A Thermo TSQ Quantum triple-quadrupole mass spectrometer (Thermo Italia, Milan, Italy) with heated electrospray ionization (H-ESI) ion source was used for mass detection and analysis. Mass spectrometric analyses were done in positive ion mode. H-ESI interface parameters were set as follows: probe middle (D) position; capillary temperature 270°C; spray voltage 3.0 kV. Nitrogen was used as nebulizing gas at the following pressure: sheath gas 35 psi; auxiliary gas 15 arbitrary units (a.u.). Argon was used as the collision gas at a pressure of approximately 1.5 mtorr (1 torr = 133.3 Pa). For quantitative analysis, the following parent ion → product ions transitions were selected: PEA (1): m/z 300.2 → m/z 62.3 (tube lens 60 V; collision energy 19 eV); PEA-d4 (Internal Standard): m/z 304.2 → m/z 66.3 + m/z 287.2 (tube lens 72 V; collision energy 15, 12 eV). MRM transitions, tube lens voltages and collision energies for compounds 3–5, 7–9, 19–24, 26–31, and 33 are reported in the S1 File. […] The coefficients of correlation (r^2) were >0.99 for all curves. The LOQ was 1 nmol mL^−1 for all analytes. Extraction efficiency was determined by comparing the peak area ratio of spiked samples at three concentration levels (low, intermediate, and high) to those of extracted charcoal treated blank plasma spiked with the corresponding concentrations. The mean extraction recovery ranged from 109% to 91% for all compounds. The specificity of the assay was evaluated by comparison of HPLC–ESI–MS/MS chromatograms of the analytes at the LOQ to those of charcoal treated blank plasma samples in triplicate.

[4] = Chemical stability in phosphate buffered saline pH 7.4; assay type: physicochemical; conditions: percent remaining after 6 h of incubation at 37°C in PBS buffer pH 7.4
Method: as §1, §2

liver FAAH = tested on: liver FAAH; design: method as in PMID 17217969; conditions: cited from earlier work
[5] = tested on: amidase activity in rat liver homogenate; assay type: biochemical
From the text: Fig 8 Role of amidase activity on compound degradation in rat liver homogenate.

[6] = Beagle dogs, oral 30 mg kg-1; cited from earlier work
[7] = rat, 20% w/v rat liver homogenate, 37°C
[8] = after addition of 25 pmol of PEA, 80% v/v rat plasma

| AUC(0-t) [1] [ng·h/mL] | concentration at 15 min [1] [nM] | concentration at 30 min [1] [nM] | concentration at 60 min [1] [nM] | concentration at 120 min [1] [nM] | concentration at 240 min [1] [nM] | concentration at 360 min [1] [nM] | concentration at 480 min [1] [nM] | Cmax of administered compound in rat plasma [1] [nm] | Time of Cmax of administered compound in rat plasma [1] [min] | half-life at 50 nM [2, 7] [min] | half-life at 50 nM ([3]; 80% v/v rat plasma, 37°C) [min] | %Compd at 6 h, pH 7.4 [4] [%] | SMILES | further results |
| --- | --- | --- | --- | --- | --- | --- | --- | --- | --- | --- | --- | --- | --- | --- |
| 129 | 612 | 212 | 35.8 | 22.2 | 7.1 | 2.7 | 9.3 | 612 | 15 | 26 ± 1 | 46 ± 3 | 91 ± 2 | CCCCCCCCCCCCCCCC(=O)NCCOC(=O)[C@@H](N)C(C)C.Cl [compound 20, 2-(palmitoylamino)ethyl L-valinate hydrochloride] | Increase in plasma half-life relative to L-Ala-PEA ([3]; rat plasma): 46 fold |
| – | – | – | – | – | – | – | – | – | – | – | – | – | NC(=O)c1cccc(-c2cccc(OC(=O)NC3CCCCC3)c2)c1 [URB597, cyclohexylcarbamic acid 3'-carbamoylbiphenyl-3-yl ester] | IC50 (liver FAAH): ~3 nM; Effect on PEA hydrolysis ([5]; URB597 10 μm pre-incubation): complete inhibition of PEA hydrolysis; Effect on conversion of 20 into PEA ([5]; URB597 10 μm pre-incubation): quantitative conversion of 20 into PEA; Effect on PEA concentrations vs control incubations of PEA and 20 ([5]; URB597 100 nm, 10 min pretreatment, p<0.05): partial, but statistically significant, increase of PEA concentrations |
| 231 | 907 | 280 | 65.9 | 56.4 | 39.9 | 11.4 | 10.1 | 907 | 15 | – | 173 ± 4 | 87 ± 2 | CCCCCCCCCCCCCCCC(=O)NCCOC(=O)[C@H](N)C(C)C.Cl [compound 28, 2-(Palmitoylamino)ethyl D-valinate hydrochloride] | remaining at 2 h, 50 nM ([2]; rat, 20% w/v rat liver homogenate, 37°C, 2 h, read-out: Percent remaining after 2 h incubation in rat liver homogenate): 67 ± 9%; Rat plasma half-life relative to L-Val-PEA (20) ([3]; rat plasma): over 6 fold |
| 109 | – | – | – | – | – | – | – | 420 ± 132 | 15 | ~25 | – | 95 ± 1 | CCCCCCCCCCCCCCCC(=O)NCCO [compound 1, Palmitoylethanolamide, reference compound] | Increase of PEA basal plasma values at Cmax ([1]; p.o. PEA 100 mg kg-1, 15 min): 20 fold; PEA concentration in rat liver homogenate after 120 min ([2]; no detectable basal PEA levels): 4.0 ± 1.2 nM; Increase in basal plasma levels at Cmax [6]: five-fold increase; Time of maximal plasma concentration (Cmax) [6]: 1 to 2 h; PEA concentration in rat plasma after 1 h [3, 8]: 56.2 ± 4.3 nM; PEA concentration in rat plasma after 6 h [3, 8]: 44.0 ± 3.2 nM; PEA concentration in rat plasma at starting point [3, 8]: 71.9 ± 2.1 nM; remaining at 6 h, 50 nM ([3]; pH 7.4, 80% v/v rat plasma, 37°C, 6 h, read-out: Percent remaining after 6 h incubation in rat plasma): 70 ± 2%; %Compd at 6 h, pH 7.4 ([4]; listed as PEA): 95% |
